Consider three compounds from patent US12295936B2, “Immunomodulating urea azalides” (Zoetis Services LLC, priority 2020, dated 2025).

For one assay, the system named is TNF-α. As to the kind of experiment: LPS-stimulated whole bovine blood assay, MSD cytokine detection. To be noted: for IC50 / pIC50: Bos taurus; for IC50: LPS-stimulated bovine whole blood, read-out: TNF-α (IC50 μM); for pIC50: LPS-stimulated whole bovine blood, read-out: TNF-α IC50. The format is cell-based.
The subject of the next assay is IL-1β. The description is as above. The format is cell-based. To be noted: for pIC50: Bos taurus, LPS-stimulated whole bovine blood, * = enhanced response at concentration indicating potential cytotoxicity; for IL-1β OS of LPS: overstimulation of IL-1β, LPS-stimulated bovine whole blood.
Assay [1] relates to IL-6. The assay is described as above. Format: cell-based. To be noted: for IC50: Bos taurus, LPS-stimulated bovine whole blood, read-out: IL-6 (IC50 μM). An excerpt: In order to correlate RNA sequencing data to cytokine changes the whole blood assay was utilized. […] The enhancement result represents an overall stimulation of cytokine levels due to cellular stress or potential toxicity with increasing concentrations of the compound, representing a typical bell shape response curve for immunomodulatory activity.

The next assay has as its system P. multocida 46572. The experiment in a line: In vivo mouse lung infection challenge model (murine efficacy). On the set-up: species or system CD-1 female mice. To be noted: for Mouse Murine Percent Survival: 20 mg/kg subcutaneous, harmonized against the comparative vehicle survival rate; for clinical efficacy in murine P. multocida infection: airway tissues collected longitudinally for transcriptomic analysis. The procedure, abridged: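 CD-1 female mice challenged intranasally with P. multocida 46572 at mid-log phase (target 5×10^2 CFU/mouse). Compounds given subcutaneously at 20 mg/kg in buffered (~pH 5.4) propylene glycol/monothioglycerol/water. Mortality observed Days 1–10, analysed by generalized mixed model; survival harmonized against vehicle survival rate.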

Assay [2] has as its system bovine respiratory disease (BRD). As to the kind of experiment: Natural bovine respiratory disease (field) studies. Format: in vivo, cattle. To be noted: for Percent failure (treatment failure): 14-day observation, beef calves at moderate risk for BRD, saline 43%.
For a further assay, the system named is M. haemolytica. As to the kind of experiment: In-vitro MIC model (CLSI broth micro-dilution). To be noted: Mannheimia haemolytica.
Another assay deals with P. multocida. As to the kind of experiment: In-vitro MIC model (CLSI broth micro-dilution). To be noted: Pasteurella multocida.
Another assay concerns H. somni. The experiment in a line: In-vitro MIC model (CLSI broth micro-dilution).
Assay [3] concerns IL-6. The experiment in a line: Plasma IL-6 biomarker in bovine M. haemolytica challenge. To be noted: for IL-6 levels (plasma) in bovine M. haemolytica challenge: in vivo.
Another assay relates to CD163. The experiment in a line: CD163 expression by flow cytometry, blood of treated/challenged cattle. To be noted: blood macrophages.
Assay [4] has as its system BRD pathogens, M. haemolytica and P. multocida. As to the kind of experiment: MIC screening panel of BRD pathogens (antibacterial / non-antibacterial).
Where [5] appears, read: 4 independent studies with multiple blood donors, FIG. 4.
[6] abbreviates: 32 hours post challenge, dosed 24 hours prior to challenge.
Where [7] appears, read: read-out: antibacterial / non-antibacterial (MIC for the BRD pathogens).
Setting [8] is: read-out: MIC to the M. haemolytica challenge strain.

pIC50: −log10 of the molar value. Converted amounts (≈) assume the structure as drawn. “Also recorded” adds a separate entry of the source. Like-named read-outs stand apart in the source and are kept apart here. Bounds are passed on as bounds.

In the case of `CCCNC[C@]1(O)[C@H](C)O[C@@H](O[C@H]2[C@H](C)[C@@H](O[C@@H]3O[C@H](C)C[C@H](N(C)C(=O)N(C)c4ccccc4)[C@H]3O)[C@](C)(O)C[C@@H](C)CN[C@H](C)[C@@H](O)[C@](C)(O)[C@@H](CC)OC(=O)[C@@H]2C)C[C@@]1(C)OC` [Example H-11, 1-((2S,3R,4S,6R)-2-(((2R,3S,4R,5R,8R,10R,11R,12S,13S,14R)-2-ethyl-3,4,10-trihydroxy-13-(((2R,4R,5S,6S)-5-hydroxy-4-methoxy-4,6-dimethyl-5-((propylamino)methyl)tetrahydro-2H-pyran-2-yl)oxy)-3,5,8,10,12,14-hexamethyl-15-oxo-1-oxa-6-azacyclopentadecan-11-yl)oxy)-3-hydroxy-6-methyltetrahydro-2H-pyran-4-yl)-1,3-dimethyl-3-phenylurea], the “expression of TNF-α, LPS stimulated whole bovine blood” value in the assay on TNF-α (setting [5]) is listed as “dose dependent reduction”. The results for the IC50 with TNF-α and in the assay on IL-6 [1] were 8 µM and 22 µM, respectively. Further, the pIC50 in the assay with TNF-α is 5.10; in the assay with IL-1β it was 4.44. The “expression of IL-1β, LPS stimulated whole bovine blood” value in the assay with IL-1β (setting [5]) was “dose dependent reduction”. Further, the “IL-1β OS of LPS” value in the assay with IL-1β was found to be 32 µM. For the same compound, the “expression of IL-6, LPS stimulated whole bovine blood” value with IL-6 [1] (setting [5]) was “dose dependent reduction”. Besides, the “Mouse Murine Percent Survival” value in the assay on P. multocida 46572 (P. multocida challenge) amounted to 36%. For the same compound, the “clinical efficacy in murine P. multocida infection” value in the assay with P. multocida 46572 is given as “clinically efficacious”. In addition, the Treatment success in assay [2] (0.03 mg/kg (T02) subcutaneous Day 0, natural field study to Day 7, saline 32.1%) amounted to 58.3%; in [2] (0.1 mg/kg (T03) subcutaneous Day 0, natural field study to Day 7, saline 32.1%), 60.7%; in [2] (0.3 mg/kg (T04) subcutaneous Day 0, natural field study to Day 7, saline 32.1%) it was 51.2%; in [2] (1 mg/kg (T05) subcutaneous Day 0, natural field study to Day 7, saline 32.1%), 40.5%. Moreover, the MIC (against M. haemolytica; against P. multocida; against H. somni (Histophilus somni); in assay [4] (setting [7])) was more than 64 µg/mL each time. In addition, in the assay on IL-6 [3] (setting [6]), the “reduction in IL-6 levels (geometric mean)” value is 51%. Also, in the assay on IL-6 [3] (setting [6]), the “reduction in IL-6 levels (median value)” value is on record as 43%. The “IL-6 levels (plasma) in bovine M. haemolytica challenge” value (“IL-6 levels (plasma)” below) with IL-6 [3] is given as “reduced; also recorded: downregulated”. In the assay with CD163, the “CD163 expression in treated cattle” value is “reduced; also recorded: downregulated”. Further, the “in vitro activity vs. clinically relevant pathogenic strains for BRD (M. haemolytica and P. multocida)” value in assay [4] is on record as “lack of in vitro activity”.
With `CCCNC[C@]1(O)[C@H](C)O[C@@H](O[C@H]2[C@H](C)[C@@H](O[C@@H]3O[C@H](C)C[C@H](N(C)C(=O)Nc4ccccc4)[C@H]3O)[C@](C)(O)C[C@@H](C)CN[C@H](C)[C@@H](O)[C@](C)(O)[C@@H](CC)OC(=O)[C@@H]2C)C[C@@]1(C)OC` [Example H-91, 1-((2S,3R,4S,6R)-2-(((2R,3S,4R,5R,8R,10R,11R,12S,13S,14R)-2-ethyl-3,4,10-trihydroxy-13-(((2R,4R,5S,6S)-5-hydroxy-4-methoxy-4,6-dimethyl-5-((propylamino)methyl)tetrahydro-2H-pyran-2-yl)oxy)-3,5,8,10,12,14-hexamethyl-15-oxo-1-oxa-6-azacyclopentadecan-11-yl)oxy)-3-hydroxy-6-methyltetrahydro-2H-pyran-4-yl)-1-methyl-3-phenylurea], the IC50 in the assay on TNF-α is 85 µM; in the assay with IL-6 [1], 181 µM. Moreover, the pIC50 in the assay on TNF-α was 4.05; in the assay with IL-1β, 3.99. In addition, in the assay with IL-1β, the “IL-1β OS of LPS” value was found to be 130 µM. For the same compound, the “Mouse Murine Percent Survival” value in the assay with P. multocida 46572 (P. multocida challenge) amounted to 38%. For the same compound, the “clinical efficacy in murine P. multocida infection” value with P. multocida 46572 is listed as “clinically efficacious”. Moreover, the Treatment success in assay [2] (0.5 mg/kg (T02) subcutaneous Day 0, natural field study to Day 7, saline 43.0%) worked out at 57.9%; in [2] (2.5 mg/kg (T03) subcutaneous Day 0, natural field study to Day 7, saline 43.0%) it was 43.9%. The MIC with M. haemolytica is more than 256 µg/mL; with M. haemolytica (read-out: MIC against all M. haemolytica target pathogens tested), more than 256 µg/mL; in the assay on M. haemolytica (setting [8]), more than 256 µg/mL; in the assay on P. multocida, more than 256 µg/mL; in the assay on H. somni (Histophilus somni), more than 64 µg/mL; in assay [4] (setting [7]) it was more than 64 µg/mL. The “IL-6 levels (plasma)” value in the assay with IL-6 [3] is given as “reduction; also recorded: downregulated”. In addition, in the assay on CD163, the “CD163 expression in treated cattle” value is listed as “suppressed; also recorded: reduction; also recorded: downregulated”. Further, the “in vitro activity vs. clinically relevant pathogenic strains for BRD (M. haemolytica and P. multocida)” value in [4] is reported as “lack of in vitro activity”.
For `CCCNC[C@]1(O)[C@H](C)O[C@@H](O[C@H]2[C@H](C)[C@@H](O[C@@H]3O[C@H](C)C[C@H](NC)[C@H]3O)[C@](C)(O)C[C@@H](C)CN[C@H](C)[C@@H](O)[C@](C)(O)[C@@H](CC)OC(=O)[C@@H]2C)C[C@@]1(C)OC` [Example M9, (2R,3S,4R,5R,8R,10R,11R,12S,13S,14R)-2-ethyl-3,4,10-trihydroxy-13-(((2R,4R,5S,6S)-5-hydroxy-4-methoxy-4,6-dimethyl-5-((propylamino)methyl)-tetrahydro-2H-pyran-2-yl)oxy)-11-(((2S,3R,4S,6R)-3-hydroxy-6-methyl-4-(methylamino)tetrahydro-2H-pyran-2-yl)oxy)-3,5,8,10,12,14-hexamethyl-1-oxa-6-azacyclopentadecan-15-one, reference compound], the IC50 in the assay with TNF-α is 250 µM; with IL-6 [1], more than 250 µM. Further, the pIC50 in the assay on TNF-α and in the assay on IL-1β was approximately 3.60 in each case. Also, the “clinical efficacy in murine P. multocida infection” value in the assay with P. multocida 46572 is “clinically efficacious”. Also, in the assay on P. multocida 46572 (positive control, 20 mg/kg, P. multocida challenge), the Mouse survival is on record as 90-100%. Moreover, the “Percent failure (treatment failure)” value was determined as 19.3% in [2] (5 mg/kg (T02)) and 8.8% in assay [2] (10 mg/kg (T03)). Moreover, the MIC50 in the assay with M. haemolytica was more than 64 µg/mL; in the assay with P. multocida, 16 µg/mL (≈ 20.2 µM); against H. somni (Histophilus somni), 32 µg/mL (≈ 40.4 µM). Besides, the figures for the MIC90 against M. haemolytica, in the assay on P. multocida and against H. somni (Histophilus somni) were more than 64 µg/mL, more than 64 µg/mL and 32 µg/mL (≈ 40.4 µM), respectively. Moreover, the MIC with M. haemolytica (ATCC33396, read-out: Comparative MIC's, M. haemolytica ATCC 33396) was 32 µg/mL (≈ 40.4 µM); in the assay with M. haemolytica (read-out: Comparative MIC's, M. haemolytica 12726) it was 32 µg/mL (≈ 40.4 µM); in the assay with M. haemolytica (read-out: Comparative MIC's, M. haemolytica 46571*) it was 32 µg/mL (≈ 40.4 µM); in the assay with M. haemolytica (setting [8]), more than 64 µg/mL; with P. multocida (ATCC43137, read-out: Comparative MIC's, P. multocida ATCC 43137), 16 µg/mL (≈ 20.2 µM); in assay [4] (read-out: MIC for the BRD bacterial strains tested / target pathogens), not above 64 µg/mL. Moreover, in assay [4] (setting [7]), the MIC was less than 64 µg/mL. Further, the “MIC Range” value against H. somni (H. somni (25) lung isolates at necropsy, natural BRD study) is 8 to 64 µg/mL. The “IL-6 levels (plasma)” value in the assay on IL-6 [3] is on record as “significantly reduced; also recorded: downregulated”. The “CD163 expression in treated cattle” value in the assay with CD163 is “suppressed; also recorded: mitigates; also recorded: downregulated”.
